The record followed here is patent publication US6911319B2, “Methods and kits for detecting protein kinases” (Lumitech (UK) Limited, priority 2000, dated 2005).

Common to all, as to format: biochemical
One assay has as its system raf-1. As to the kind of experiment: Bioluminescent protein kinase assay, raf-1 activation of inactive MEK-1. The following applies: two different concentrations of PD098059; inactive MEK-1 as substrate.
In another assay the target is T1, MAPK-1/ERK-1 (Homo sapiens, UniProt P27361).
T1 construct: purchased UBI (Upstate Biotechnology)
In words: Bioluminescent protein kinase assay, MAPK-1 with MBP as substrate. Particulars: 30° C. for 30 minutes, MBP 2.72 μM. As for the experimental part: We also investigated the effect of genistein (Calbiochem) on MAPK-1 activity with MBP as substrate.
The assay buffer used was the same as for the SAP kinases (see above). The assay was performed in 100 μl volumes in a 96 well microtitre plate at 30° C. for 30 minutes. MBP (Calbiochem) was used at the same concentration as previously described (2.72 μM), with the activated MAPK1/ERK1 (UBI) used at a final concentration of 2.5U per100 μl reaction volume. The inhibitor was added at concentrations of 0, 0.1, 0.25, 0.5 and 1.0 μM, with 10 μl being added per well in 0.1% (v/v) DMSO.
For completeness, control samples with and without DMSO (0+DMSO and 0−DMSO, respectively) were also analysed to confirm that there was no effect of DMSO on the performance of the assay.

Assay [1] deals with luciferase-luciferin reaction (Photinus pyralis, UniProt P08659). In words: Effect of inhibitor on the bioluminescent ATP detection system. Particulars: even at the highest concentration of the inhibitor; 10 μM ATP, 100 μl volumes, 96 well plate. Here is the method: We initially chose to look at a broad spectrum kinase inhibitor staurosporine (Calbiochem). Firstly, we tested the inhibitor (in DMSO) on the ATP detection reagent to ensure that the inhibitor would not affect the luciferase-luciferin reaction.
The results are presented as the means of triplicate wells±SD.
The experiment was performed using 10 μM ATP in 100 μl volumes in a 96 well plate with the addition of 20 μl of ATP detection reagent.

The next assay concerns the target T2, JNK2α2 (Homo sapiens, UniProt P45984).
T2 construct: purchased Upstate Discovery
In words: Bioluminescent protein kinase assay, JNK2α2 with ATF-2 as substrate. As for the experimental part:
The lower concentration had little effect, however 5 μM caused approximately 50% inhibition after 30 minutes at 30° C.
The above assay was performed in 200 μl volumes in plastic tubes in, a 30° C. waterbath. At each time point 20 μl samples were removed from the tubes and added to wells of a 96 well plate, followed by the addition of 20 μl of ATP detection reagent. The final concentration of ATP used was 12.5 μM, with JNK2α2 at 1.25 μM and ATF-2 at 2.55 μM.

T2 sequence (P45984 whole entry): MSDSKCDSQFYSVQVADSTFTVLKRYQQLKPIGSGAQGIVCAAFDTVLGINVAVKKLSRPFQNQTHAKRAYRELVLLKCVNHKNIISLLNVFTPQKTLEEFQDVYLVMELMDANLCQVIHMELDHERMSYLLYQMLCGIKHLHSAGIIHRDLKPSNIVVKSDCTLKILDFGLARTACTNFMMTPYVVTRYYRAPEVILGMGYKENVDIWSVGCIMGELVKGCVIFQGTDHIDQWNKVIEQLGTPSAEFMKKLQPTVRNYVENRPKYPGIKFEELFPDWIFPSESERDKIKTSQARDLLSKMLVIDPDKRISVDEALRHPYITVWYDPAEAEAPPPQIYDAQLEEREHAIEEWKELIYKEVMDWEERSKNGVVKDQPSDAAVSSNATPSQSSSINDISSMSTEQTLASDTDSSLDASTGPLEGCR
T1 sequence (P27361 whole entry): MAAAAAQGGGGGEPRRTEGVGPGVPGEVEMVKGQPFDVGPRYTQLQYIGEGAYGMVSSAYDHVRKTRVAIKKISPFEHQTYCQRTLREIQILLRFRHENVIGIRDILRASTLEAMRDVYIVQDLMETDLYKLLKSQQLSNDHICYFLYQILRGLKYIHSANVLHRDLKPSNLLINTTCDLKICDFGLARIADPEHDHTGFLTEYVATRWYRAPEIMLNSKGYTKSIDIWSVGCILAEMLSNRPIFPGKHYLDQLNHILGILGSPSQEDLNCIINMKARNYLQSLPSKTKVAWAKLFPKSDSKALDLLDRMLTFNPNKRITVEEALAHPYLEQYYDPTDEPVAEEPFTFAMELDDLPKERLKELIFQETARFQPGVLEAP
Sequence of luciferase-luciferin reaction (P08659 whole entry): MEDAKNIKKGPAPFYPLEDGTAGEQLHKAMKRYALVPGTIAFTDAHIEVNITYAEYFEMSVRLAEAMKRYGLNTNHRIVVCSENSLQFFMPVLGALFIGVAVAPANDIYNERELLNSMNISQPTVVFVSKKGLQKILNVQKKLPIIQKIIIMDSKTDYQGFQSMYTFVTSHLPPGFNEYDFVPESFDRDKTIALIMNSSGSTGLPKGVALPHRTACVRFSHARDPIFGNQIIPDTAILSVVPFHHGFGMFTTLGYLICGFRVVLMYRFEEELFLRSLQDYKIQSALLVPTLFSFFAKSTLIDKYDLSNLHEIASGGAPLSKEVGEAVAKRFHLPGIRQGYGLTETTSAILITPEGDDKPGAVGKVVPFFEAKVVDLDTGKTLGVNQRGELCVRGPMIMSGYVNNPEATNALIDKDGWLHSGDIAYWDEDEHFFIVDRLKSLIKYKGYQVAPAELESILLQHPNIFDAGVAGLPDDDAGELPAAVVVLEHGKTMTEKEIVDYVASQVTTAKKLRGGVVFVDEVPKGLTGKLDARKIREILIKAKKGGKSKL

As to `COc1cccc(-c2cc(=O)c3ccccc3o2)c1N` [PD098059], the “light output in the presence of the inhibitor (indicating reduced kinase activity)” value with raf-1 was “concentration dependent increase”.
Consider `O=c1c(-c2ccc(O)cc2)coc2cc(O)cc(O)c12` [genistein], for which the figures for the “effect on MAPK-1 activity” value on MAPK-1/ERK-1 (genistein 500 nM) and at MAPK-1/ERK-1 (genistein 1 μM) were “an effect” and “increased inhibitory activity”, respectively.
As for `CN[C@@H]1C[C@H]2O[C@@](C)([C@@H]1OC)n1c3ccccc3c3c4c(c5c6ccccc6n2c5c31)C(=O)NC4` [staurosporine], the “effect upon light output” value in assay [1] is recorded as “no significant effect”. In addition, the “inhibition of JNK2α2 activity” value at JNK2α2 (5 μM staurosporine, after 30 minutes at 30° C., ATP 12.5 μM, JNK2α2 1.25 μM, ATF-2 2.55 μM) is “approximately 50%”. Further, the “effect on JNK2α2 activity” value at JNK2α2 (the lower of two staurosporine concentrations, 30° C.) is given as “little effect”.
